The nature of series [1]: Oxidation test: toluene solutions allowed to stand in air at room temperature, HPLC peak area ratio. It is filed as physicochemical. The following applies: for Peak area ratio (%) of starting compound to whole peak area: toluene solution 0.33 mg/mL, in air, HPLC UV 290 nm, time 0 day (initial); for Change in peak area ratio on preservation as a solution (in words): long period of time. The source says:
The stability in air of the fullerene derivatives of the present invention may be confirmed, for example, by analyzing the change in quality thereof with time by HPLC. More specifically, the stability in air can be determined as follows. That is, a toluene solution of the fullerene derivatives of the present invention which is allowed to stand in air at room temperature, is subjected to HPLC using an octadecyl-bonded silica gel column (hereinafter referred to merely as “ODS” column), an eluent composed of toluene and methanol and a UV wavelength of 290 nm to measure the rate of reduction in area ratio of a peak attributed to the fullerene derivatives to whole peaks as observed. Concretely, it can be evaluated by the stability in air of solution of fullerene derivative according to the present invention to the solution of same fullerene derivative to the present one except for having a hydrogen atom on cyclopentadiene ring of fullerene skeleton, for example, a C60Ph5CH3 solution to a C60Ph5H solution (Ph represents a phenyl group). For example, the rate of reduction in peak area ratio of the fullerene derivatives according to the present invention is usually 1/20 or lower, preferably 1/100 or lower than that of the case where one having a hydrogen atom on cyclopentadiene ring, namely C60Ph5H, is used under the same conditions.
90 mL of a toluene solution of C60Ph5H (0.33 mg/mL) and 90 mL of a toluene solution of C60Ph5Me obtained in Example 10 (0.33 mg/mL) were respectively prepared and allowed to stand in air at room temperature. The prepared solutions were sampled in an amount of 0.5 mL for each every several days, and subjected to HPLC analysis to examine the change in quality thereof with time. The HPLC analysis conditions were ODS; column size: 150 mm×4.6 mmφ; eluent: toluene/methanol=4/6; flow rate: 1.0 mL/min; detector used: UV 290 nm.

The nature of series [2]: Solubility in organic solvents at 25° C.
Where [3] appears, read: toluene solution in air, time 1 day.
Where [4] appears, read: toluene solution in air, time 2 days.
Where [5] appears, read: toluene solution in air, time 6 days.
Where [6] appears, read: toluene solution in air, time 8 days.
Setting [7] is: toluene solution in air, time 9 days.
The mark [8] stands for this setting: toluene solution in air, time 14 days.
Where [9] appears, read: toluene solution in air, time 15 days.
The mark [10] stands for this setting: toluene solution in air, time 16 days.
The mark [11] stands for this setting: toluene solution in air, time 20 days.
Where [12] appears, read: toluene solution in air, time 22 days.
Where [13] appears, read: toluene solution in air, time 23 days.
Where [14] appears, read: toluene solution in air, time 63 days.

Molecules are shown by their SMILES. Values after ≈ are worked out from the molar mass of the structure shown.

For `CC12C3=C4C5=C1C1(c6ccccc6)c6c7c8c9c(c%10c%11c%12c(c%13c%14c%15c(c%16c%17c%18c(c1c1c6c6c8c8c%19c9c%11c9c%11c%12c%14c%12c%14c%15c%17c%15c%17c%18c1c1c6c8c6c(c9%19)c(c%11%12)c(c%14%15)c6c1%17)C%162c1ccccc1)C3%13c1ccccc1)C4%10c1ccccc1)C57c1ccccc1` (stereo not shown) [Example C60Ph5Me, 1-methyl-6,9,12,15,18-pentaphenyl-1,6,9,12,15,18-hexahydro-(C60-Ih)[5,6]fullerene], the “Peak area ratio (%) of starting compound to whole peak area” value in series [1] stood at 98.8%. In addition, the “Change in peak area ratio on preservation as a solution (in words)” value in series [1] (toluene solution in air) is “kept substantially unchanged”. Further, the “Peak area ratio (%)” value in series [1] (setting [3]) worked out at 98.4%; in series [1] (setting [4]) it was 98.9%; in series [1] (toluene solution in air, time 3 days), 98.8%; in series [1] (setting [5]), 98.4%; in series [1] (toluene solution in air, time 7 days) it was 98.3%; in series [1] (setting [6]), 98.7%. The “Peak area ratio (%)” value in series [1] (setting [7]) stood at 98.5%; in series [1] (toluene solution in air, time 10 days), 98.0%; in series [1] (setting [8]), 98.3%; in series [1] (setting [9]), 98.9%; in series [1] (setting [10]), 98.4%; in series [1] (setting [11]), 98.4%. For the same compound, the “Peak area ratio (%)” value in series [1] (toluene solution in air, time 21 days) is 98.4%; in series [1] (setting [12]), 97.1%; in series [1] (setting [13]) it was 97.4%; in series [1] (toluene solution in air, time 25 days), 98.5%; in series [1] (toluene solution in air, time 31 days), 97.9%; in series [1] (toluene solution in air, time 38 days) it was 98.2%. Besides, the “Peak area ratio (%)” value in series [1] (toluene solution in air, time 48 days) came to 98.1%; in series [1] (setting [14]), 98.3%.
Regarding `c1ccc(C23C4=C5C6C7=C4C4(c8ccccc8)c8c2c2c9c3c3c%10c%11c(c%12c%13c%14c(c%15c%16c%17c(c4c4c8c8c2c2c%18c9c%10c9c%10c%11c%13c%11c%13c%14c%16c%14c%16c%17c4c4c8c2c2c(c%189)c(c%10%11)c(c%14%13)c2c4%16)C7%15c2ccccc2)C%126c2ccccc2)C53c2ccccc2)cc1` (stereo not shown) [Example C60Ph5H], in series [1], the “Peak area ratio (%) of starting compound to whole peak area” value is 98.5%. Besides, the “Rate of reduction of the peak area ratio” value in series [1] (toluene solution in air) was “about 0.45 % per day”. The “Change in peak area ratio on preservation as a solution (in words)” value in series [1] (toluene solution in air) is reported as “considerable reduction in peak area ratio”. For the same compound, the “Peak area ratio (%)” value in series [1] (setting [3]) is listed as 97.5%; in series [1] (setting [4]) it was 96.7%; in series [1] (toluene solution in air, time 5 days), 95.0%; in series [1] (setting [5]), 94.4%; in series [1] (setting [6]), 93.2%; in series [1] (setting [7]), 92.9%. Further, the “Peak area ratio (%)” value came out at 92.0% in series [1] (toluene solution in air, time 12 days); 91.7% in series [1] (toluene solution in air, time 13 days); 90.6% in series [1] (setting [8]); 90.1% in series [1] (setting [9]); 89.6% in series [1] (setting [10]); 88.6% in series [1] (setting [11]). In addition, the “Peak area ratio (%)” value in series [1] (setting [12]) stood at 87.4%; in series [1] (setting [13]), 87.4%; in series [1] (toluene solution in air, time 26 days), 85.9%; in series [1] (toluene solution in air, time 30 days), 84.3%; in series [1] (toluene solution in air, time 33 days), 81.5%; in series [1] (toluene solution in air, time 37 days) it was 80.4%. The “Peak area ratio (%)” value in series [1] (toluene solution in air, time 43 days) is given as 78.9%; in series [1] (toluene solution in air, time 51 days) it was 74.1%; in series [1] (toluene solution in air, time 58 days), 71.4%; in series [1] (setting [14]), 70.1%; in series [1] (toluene solution in air, time 65 days), 70.1%.
As to `CCOC(=O)CCCC12C3=C4C5=C1C1(C)c6c7c8c9c(c%10c%11c%12c(c%13c%14c%15c(c%16c%17c%18c(c1c1c6c6c8c8c%19c9c%11c9c%11c%12c%14c%12c%14c%15c%17c%15c%17c%18c1c1c6c8c6c(c9%19)c(c%11%12)c(c%14%15)c6c1%17)C%162C)C3%13C)C4%10C)C57C` (stereo not shown) [C60Me5—(CH2)3CO2Et, 1-(3-(ethoxycarbonyl)propyl)-6,9,12,15,18-pentamethyl-1,6,9,12,15,18-hexahydro-(C60-Ih)[5,6]fullerene], the “Solubility in chloroform (CHCl3)” value in series [2] (CHCl3, 25° C.) is 35.9 mg/mL (≈ 39.4 mM). Further, the “Solubility in N,N-dimethylformamide (DMF)” value in series [2] (DMF, 25° C.) is on record as 15.4 mg/mL (≈ 16.9 mM). Further, the “Solubility in ethyl acetate (EtOAc)” value in series [2] (EtOAc, 25° C.) stood at 3.9 mg/mL (≈ 4.28 mM). Moreover, the “Solubility in tetrahydrofuran (THF)” value in series [2] (THF, 25° C.) was 103.0 mg/mL (≈ 113 mM).

These data come from patent US20050008558A1, “Fullerene derivatives and processes for producing the same” (Eiichi NAKAMURA, priority 2003, published 2005).
